Source: patent US9623073B2, “Learning motivation improvers” (SUNTORY HOLDINGS LIMITED, priority 2009, dated 2017)
Read-outs that look alike come from different tables or passages of the source.

How the values were obtained:
[1] = target: T1, human serotonin transporter expressed in CHO cells (Homo sapiens, UniProt P31645); experiment: Inhibitory activity on serotonin transporter binding (3H-imipramine)
T1 construct: expressed in transfected cells; host or cells: CHO cells
Method: As used herein, the term “SSRI antidepressant” is intended to mean an agent that selectively binds to the serotonin transporter and inhibits the reuptake of serotonin through this serotonin transporter. Inhibitory activity on serotonin transporter binding may be measured, for example, as described in Eur. J. Pharmacol., 368: 277-283, 1999. Namely, it is measured by determining whether ^3H-labeled imipramine binds to the human serotonin transporter expressed in CHO cells.
(§1) Various cyclic dipeptides were measured for their inhibitory activity on serotonin transporter binding and norepinephrine transporter binding, as described in the prior documents mentioned above (Eur J Pharmacol, 368, 277-283, 1999 for inhibitory activity on serotonin transporter binding; and Nature, 350, 350-354, 1991 for inhibitory activity on noradrenaline transporter binding). Compound C was synthesized by Peptide Institute, Inc., Japan, and the other cyclic dipeptides were purchased from Bachem AG (Bubendorf, Switzerland). The results were expressed as IC50 values, i.e., the concentrations of the various cyclic peptides required for 50% inhibition of binding to each transporter (Table 1).

C57BL/6 mice = experiment: Morris water maze (MWM) after open space swimming (OSS), learning motivation; type: in vivo; settings: for improving effect on learning motivation over control group (OSS-Vehicle): 20 mg/kg, MWM, FIG. 2
Method: On the other hand, the Morris water maze test has been reported as a method for measuring spatial memory and learning (Learn. Motiv. 12, 239-260 (1981)). In this test, the time required to reach an escape platform (escape latency) is used as a parameter for evaluation, because mice will remember their surrounding scenery and swim in a pool filled with water to try to find and reach the escape platform, which is a goal, with their memory as a guide. Since mice to be used in this test are treated to reduce their motivation by being allowed to swim in a pool having no escape platform before the Morris water maze test, a reduction in the time required to reach the escape platform can be regarded as an improvement in learning motivation.
Compound A was evaluated for its antidepressive effect and enhancing effect on learning motivation by the method known in the art, i.e., Morris Water Maze (MWM).
First, water which had been colored black with Indian ink was filled into a cylindrical tank of 90 cm diameter and 35 cm height to give a water depth of 20 cm, and the water temperature was set to 22±1° C. To this tank, C57BL/6 mice (male, 9 weeks of age) were each transferred and allowed to experience open space swimming (OSS). Upon OSS, mice will cause changes in their behavior and enter a state corresponding to depression. After repeating OSS for 5 days, the mice were divided into 7 groups.
Next, in the above cylindrical tank of 90 cm diameter and 35 cm height, an escape platform of 10 cm diameter was placed at a water depth of 0.5 cm. The above 7 groups of mice were each orally administered with compound A (Bachem AG (Bubendorf, Switzerland)) or with a comparative drug, fluvoxamine maleate, in the form of a suspension in physiological saline. After 60 minutes, each mouse was transferred to the tank provided with the escape platform, and measured for the time required to find out the invisible escape platform placed below the water surface (i.e., escape latency) to evaluate the spatial memory and learning ability of each mouse (MWM). As control mice, animals experiencing no OSS were administered with physiological saline and subjected to MWM. MWM was repeated five times a day for 10 days.
In the same manner as shown in Example 2, mice were administered with 20 mg/kg compound A and then subjected to the MWM test. As a control, a linear dipeptide (Phe-Phe) was administered at 20 mg/kg, followed by the MWM test.
In the same manner as shown in Example 2, another group receiving 0.002 mg/kg administration was prepared and subjected to the same MWM test.

mice = experiment: Single-dose (acute) toxicity study; type: in vivo; settings: administered at 2 g/kg
rats = experiment: 28-day repeated dose toxicity study; type: in vivo
[2] = Genetic toxicity studies (Ames test, chromosomal aberration test, mouse micronucleus test)
[3] = target: T2, human norepinephrine transporter expressed in CHO cells (Homo sapiens, UniProt P23975); experiment: Inhibitory activity on norepinephrine transporter binding (3H-nisoxetine); settings: for IC50: concentration required for 50% inhibition of binding
T2 construct: expressed in transfected cells; host or cells: CHO cells
Method: The term “SNRI antidepressant” is intended to mean an agent that binds to both serotonin and norepinephrine transporters, and inhibits the reuptake of serotonin and norepinephrine. Inhibitory activity on norepinephrine transporter binding may be measured, for example, as described in Nature, 350: 350-354, 1991. Namely, it is measured by determining whether ^3H-labeled nisoxetine binds to the human norepinephrine transporter expressed in CHO cells.
as §1

[4] = concentration required for 50% inhibition of binding, read-out: IC50, serotonin transporter (converted)

T1 sequence (P31645 whole entry): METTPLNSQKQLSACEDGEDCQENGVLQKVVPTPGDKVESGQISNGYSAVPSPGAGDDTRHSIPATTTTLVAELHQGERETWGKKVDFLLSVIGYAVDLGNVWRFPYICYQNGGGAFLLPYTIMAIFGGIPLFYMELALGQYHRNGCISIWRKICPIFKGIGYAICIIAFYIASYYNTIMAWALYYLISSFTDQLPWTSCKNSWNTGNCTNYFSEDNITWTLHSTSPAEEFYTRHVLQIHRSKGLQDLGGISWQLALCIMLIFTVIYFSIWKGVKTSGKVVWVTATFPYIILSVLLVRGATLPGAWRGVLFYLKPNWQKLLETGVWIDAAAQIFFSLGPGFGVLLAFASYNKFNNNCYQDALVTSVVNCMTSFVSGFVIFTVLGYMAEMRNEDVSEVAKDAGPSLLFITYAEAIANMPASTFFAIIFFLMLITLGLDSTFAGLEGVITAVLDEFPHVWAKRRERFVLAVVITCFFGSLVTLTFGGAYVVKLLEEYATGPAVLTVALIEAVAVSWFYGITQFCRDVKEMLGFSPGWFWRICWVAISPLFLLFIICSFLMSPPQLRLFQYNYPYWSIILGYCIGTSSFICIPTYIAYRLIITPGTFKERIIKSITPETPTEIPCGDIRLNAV
T2 sequence (P23975 whole entry): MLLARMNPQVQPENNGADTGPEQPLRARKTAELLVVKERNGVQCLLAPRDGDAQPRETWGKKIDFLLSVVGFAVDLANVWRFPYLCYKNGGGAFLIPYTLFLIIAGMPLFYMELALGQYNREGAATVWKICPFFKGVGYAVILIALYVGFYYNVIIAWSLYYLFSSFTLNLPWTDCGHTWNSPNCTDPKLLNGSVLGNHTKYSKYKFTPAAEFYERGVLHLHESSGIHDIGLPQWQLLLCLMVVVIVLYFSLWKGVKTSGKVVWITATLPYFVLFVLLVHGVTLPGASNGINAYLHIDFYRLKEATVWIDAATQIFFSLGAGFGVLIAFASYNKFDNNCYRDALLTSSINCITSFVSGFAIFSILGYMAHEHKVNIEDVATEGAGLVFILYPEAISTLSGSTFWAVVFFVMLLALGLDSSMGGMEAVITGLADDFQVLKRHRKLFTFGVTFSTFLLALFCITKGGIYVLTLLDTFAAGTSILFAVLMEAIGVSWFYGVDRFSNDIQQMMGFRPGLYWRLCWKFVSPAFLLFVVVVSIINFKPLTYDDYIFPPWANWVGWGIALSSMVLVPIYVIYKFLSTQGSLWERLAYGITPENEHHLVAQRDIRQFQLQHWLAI

IC50 [3] [µM]	Compound	inhibitory activity on serotonin transporter binding (in words) [1]	IC50 [1, 4] [µM]	inhibitory activity on norepinephrine transporter binding (in words) [3]	other results
–	O=C1N[C@@H](Cc2ccccc2)C(=O)N[C@H]1Cc1ccccc1 [Compound A, 2,5-piperazinedione,3,6-bis(phenylmethyl)-,(3S,6S)]	have inhibitory activity on serotonin transporter binding	8.15	–	IC50 ([1]; read-out: concentration (IC50) required for 50% inhibition of serotonin transporter binding): 8.1 µM; reduction of escape latency compared to control group (OSS-Saline) (C57BL/6 mice; 0.02 mg/kg oral, at 10 days of MWM): around 20%; time required to reach the escape platform versus fluvoxamine maleate group (C57BL/6 mice; 20 mg/kg oral, at 10 days of MWM): substantially the same; improving effect on learning motivation over control group (OSS-Vehicle) (C57BL/6 mice): significant improving effect on learning motivation; human dose predicted from the effective dose in mice (C57BL/6 mice; 1/10 of the mouse dose 0.02 mg/kg): 0.1 mg/human (50 kg); escape latency, dose dependence (C57BL/6 mice; OSS mice, oral, MWM for 10 days, FIG. 1): dose-dependent reduction in the escape latency; dose at which the effect is exerted (C57BL/6 mice; mice, time to reach the escape platform at 7 days of MWM, FIG. 3): ≥ 0.02 mg/kg; toxicity in single-dose (acute) toxicity study (mice): no toxicity; maximum no-effect dose (rats): ≥ 2 g/kg/day; mutagenicity [2]: no mutagenicity
2000	CC(C)C[C@@H]1NC(=O)[C@@H]2CCCN2C1=O [Compound E, pyrrolo[1,2-a]pyrazine-1,4-dione,hexahydro-3-(2-methylpropyl)-,(3S,8aS)]	–	–	have inhibitory activity on norepinephrine transporter binding	–
10700	CC(C)[C@@H]1NC(=O)[C@@H]2CCCN2C1=O [Compound F, pyrrolo[1,2-a]pyrazine-1,4-dione,hexahydro-3-(1-methylethyl)-,(3S,8aS)]	–	–	have inhibitory activity on norepinephrine transporter binding	–
148	O=C1N[C@@H](Cc2c[nH]c3ccccc23)C(=O)N[C@H]1Cc1c[nH]c2ccccc12 [Compound D, 2,5-piperazinedione,3,6-bis(1H-indol-3-ylmethyl)-,(3S,6S)]	–	–	have inhibitory activity on norepinephrine transporter binding	–
–	O=C1N[C@@H](Cc2c[nH]c3ccccc23)C(=O)N2CCC[C@@H]12 [Compound C, pyrrolo[1,2-a]pyrazine-1,4-dione,hexahydro-3-(1H-indol-3-ylmethyl)-,(3S,8aS)]	have inhibitory activity on serotonin transporter binding	3740	–	–
–	Phe-Phe [reference compound]	–	–	–	improving effect on learning motivation over control group (OSS-Vehicle) (C57BL/6 mice): not confirmed to have a significant effect
–	O=C1N[C@@H](Cc2c[nH]cn2)C(=O)N2CCC[C@@H]12 [Compound B, pyrrolo[1,2-a]pyrazine-1,4-dione,hexahydro-3-(1H-imidazol-4-ylmethyl)-,(3S,8aS)]	have inhibitory activity on serotonin transporter binding	2480	–	–
